Calls of active or inactive are those of the source.
How the values were obtained:
BJ [1] = assay: cytotoxicity toward BJ-TERT fibroblasts, dose response, cell-based, RAS-independent, luminescence (AID 1933); format: functional; conditions: Homo sapiens
[2] = cytotoxicity in HEK-293T cells, dose response, cytotoxicity control for TCR NF-kB inhibitor project, luminescence, T-cell screen hits (AID 489026); format: functional, cell-based;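 also: cells exposed to compound about 14 hours before the viability readout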
BJ [3] = assay: cells; format: functional, cell-based; conditions: Homo sapiens
BJ [4] = assay: cytotoxicity toward BJ-TERT-LT-ST fibroblasts, dose response, cell-based, RAS-independent, luminescence (AID 1935); format: functional; conditions: Homo sapiens;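 also: BJ fibroblasts immortalized with TERT plus LT and ST oncogenes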
[5] = cytotoxicity toward DRD oncogenic fibroblasts, dose response, cell-based, non-viral oncogenic, luminescence (AID 1934); format: functional; conditions: Homo sapiens
[6] = test system: Streptococcus sp. 'group A'; assay: growth inhibition of control SK(-) GAS strain, dose response, counter-screen for streptokinase expression inhibitor project, luminescence, kanamycin, BacTiterGlo, confirmation (AID 1900); format: functional, organism-based
Streptococcus = assay: Group A Streptococcus viability loss, dose response, counter-screen for streptokinase expression inhibitor project, luminescence, BacTiterGlo (AID 1915); format: functional, organism-based;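 also: potency for reduction of bacterial viability or growth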
Streptokinase A = target: T1, Streptokinase A (Streptococcus pyogenes serotype M1, UniProt P10520); assay: S. pyogenes streptokinase expression inhibitors, potency, dose response, plasminogen activation absorbance, OD405 (AID 1914); format: functional, Streptococcus pyogenes M1 GAS;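 also: secreted streptokinase activity via plasminogen activation per viability signal from cell pellet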
T1 sequence (P10520 whole entry): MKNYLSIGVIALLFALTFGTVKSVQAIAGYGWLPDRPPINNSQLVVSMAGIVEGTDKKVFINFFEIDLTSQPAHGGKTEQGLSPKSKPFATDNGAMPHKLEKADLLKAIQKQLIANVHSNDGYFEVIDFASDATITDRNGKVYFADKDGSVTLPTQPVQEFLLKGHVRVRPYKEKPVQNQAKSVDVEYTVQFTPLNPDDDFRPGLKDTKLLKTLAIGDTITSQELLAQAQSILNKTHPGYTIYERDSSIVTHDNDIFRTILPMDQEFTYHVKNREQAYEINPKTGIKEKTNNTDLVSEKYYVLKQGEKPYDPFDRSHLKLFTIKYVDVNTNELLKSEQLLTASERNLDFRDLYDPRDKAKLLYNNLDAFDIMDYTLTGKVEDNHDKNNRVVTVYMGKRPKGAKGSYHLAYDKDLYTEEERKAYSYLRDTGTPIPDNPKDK

[7] = microbe, parasite or virus in culture; format: functional; conditions: Mycobacterium tuberculosis
[8] = target: T2, Corticotropin-releasing factor receptor 2/Corticotropin-releasing factor-binding protein (Homo sapiens, UniProt P24387+Q13324); assay: activators of CRF receptor 2 with binding protein – uHTS hits, confirmation (AID 602473); format: functional; conditions: read-out: EC50_Mean
T2 sequence (Q13324 whole entry): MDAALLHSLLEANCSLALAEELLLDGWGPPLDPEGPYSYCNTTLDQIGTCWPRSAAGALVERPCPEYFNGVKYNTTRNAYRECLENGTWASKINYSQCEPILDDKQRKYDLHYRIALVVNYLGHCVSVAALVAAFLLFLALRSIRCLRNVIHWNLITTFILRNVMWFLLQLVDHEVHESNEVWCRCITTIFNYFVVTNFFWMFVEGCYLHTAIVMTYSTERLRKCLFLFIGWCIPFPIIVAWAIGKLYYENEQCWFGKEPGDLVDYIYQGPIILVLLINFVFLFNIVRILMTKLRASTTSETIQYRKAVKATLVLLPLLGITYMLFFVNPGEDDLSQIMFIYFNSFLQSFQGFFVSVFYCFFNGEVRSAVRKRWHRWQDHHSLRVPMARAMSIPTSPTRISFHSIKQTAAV
T2 sequence (P24387 whole entry): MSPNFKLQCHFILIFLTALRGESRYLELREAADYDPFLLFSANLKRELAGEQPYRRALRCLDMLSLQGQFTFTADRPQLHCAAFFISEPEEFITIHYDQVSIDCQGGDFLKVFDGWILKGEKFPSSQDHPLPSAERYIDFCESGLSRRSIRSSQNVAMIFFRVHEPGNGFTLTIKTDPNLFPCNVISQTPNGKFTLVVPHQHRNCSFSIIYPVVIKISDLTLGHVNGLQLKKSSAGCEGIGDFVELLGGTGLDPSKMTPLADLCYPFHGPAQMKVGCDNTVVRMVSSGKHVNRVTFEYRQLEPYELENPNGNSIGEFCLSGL

[9] = target: T2, Corticotropin-releasing factor receptor 2/Corticotropin-releasing factor-binding protein; assay: Dose Response confirmation of uHTS hits for small molecule antagonists of the CRF-binding protein and CRF-R2 receptor complex.; format: functional; conditions: read-out: IC50_Mean
Fatty acid synthase [10] = target: T3, Fatty acid synthase (Homo sapiens, UniProt P49327); assay: FAS thioesterase domain inhibitors, dose response, biochemical, kinetic fluorescence intensity (AID 624326); format: functional;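 also: rate of fluorescence rise from hydrolysis of a fluorogenic O-methyl fluorescein ester substrate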
Cytochrome P450 2D6 = Cytochrome P450 2D6 (Homo sapiens, UniProt P10635);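 also: CYP2D6 member of a cytochrome P450 panel assay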
Cytochrome P450 3A4 = Cytochrome P450 3A4 (Homo sapiens, UniProt P08684);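 also: CYP3A4 tested as one member of a cytochrome P450 panel screen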
Cytochrome P450 1A2 = target: T4, Cytochrome P450 1A2 (Homo sapiens, UniProt P05177);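 also: PubChem cytochrome P450 panel assay, CYP1A2 panel member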
T4 sequence (P05177 whole entry): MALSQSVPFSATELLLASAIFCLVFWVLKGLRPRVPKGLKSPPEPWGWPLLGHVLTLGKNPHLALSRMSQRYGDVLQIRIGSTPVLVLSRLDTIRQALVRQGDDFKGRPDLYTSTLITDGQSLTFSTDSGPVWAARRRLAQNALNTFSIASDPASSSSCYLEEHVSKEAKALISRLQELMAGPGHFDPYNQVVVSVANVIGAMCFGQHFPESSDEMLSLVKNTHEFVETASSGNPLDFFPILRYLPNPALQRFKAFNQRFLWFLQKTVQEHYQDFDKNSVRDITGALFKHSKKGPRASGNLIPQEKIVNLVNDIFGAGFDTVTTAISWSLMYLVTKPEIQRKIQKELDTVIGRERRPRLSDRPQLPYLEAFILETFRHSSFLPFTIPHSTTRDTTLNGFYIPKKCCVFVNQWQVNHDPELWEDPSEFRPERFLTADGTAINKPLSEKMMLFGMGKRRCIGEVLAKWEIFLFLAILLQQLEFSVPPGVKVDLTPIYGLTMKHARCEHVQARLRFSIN

Fatty acid synthase [11] = target: T3, Fatty acid synthase; assay: FAS thioesterase domain inhibitors, dose response, biochemical, endpoint fluorescence intensity, uHTS hits (AID 624327); format: functional;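 also: fluorescence from hydrolysis of an O-methyl fluorescein acyl ester substrate by the enzyme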
[12] = target: T5, Heat shock factor protein 1 (Mus musculus, UniProt P38532); assay: HSF1 potentiators in luciferase reporter cells, confirmation, cell-based, NIH3T3, luminescence, dose retest (AID 435004); format: functional;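 also: stress induced by proteasome inhibitor MG132 added 30 min after compound; luciferase reporter driven by HSF1 response element in NIH3T3 cells; actives raise luminescence as potentiators of the MG132 stress response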
T5 sequence (P38532 whole entry): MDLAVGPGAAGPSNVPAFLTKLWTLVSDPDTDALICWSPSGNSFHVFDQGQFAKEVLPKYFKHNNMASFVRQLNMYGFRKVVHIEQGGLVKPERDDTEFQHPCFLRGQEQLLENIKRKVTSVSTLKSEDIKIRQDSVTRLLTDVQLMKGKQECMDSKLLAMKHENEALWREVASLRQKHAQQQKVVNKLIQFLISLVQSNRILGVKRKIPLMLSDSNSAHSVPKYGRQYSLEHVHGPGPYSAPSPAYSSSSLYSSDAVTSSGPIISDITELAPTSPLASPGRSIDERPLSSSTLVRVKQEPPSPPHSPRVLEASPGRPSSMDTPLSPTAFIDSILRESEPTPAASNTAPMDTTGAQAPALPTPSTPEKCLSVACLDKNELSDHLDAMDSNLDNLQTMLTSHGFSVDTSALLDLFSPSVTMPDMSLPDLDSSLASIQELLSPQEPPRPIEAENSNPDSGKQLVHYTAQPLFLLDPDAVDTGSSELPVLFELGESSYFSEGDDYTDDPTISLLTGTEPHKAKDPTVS

cells = format: functional
[13] = Shn3 3'UTR reporter inhibitors, dose response, cell-based, Clone20 osteoblasts, firefly luciferase, cherry-picked (AID 624132); format: functional;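 also: firefly luciferase luminescence from reporter carrying the Shn3 3'UTR in osteoblasts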
[14] = control 3'UTR Renilla luciferase suppression, dose response, counter-screen for Shn3 inhibitor project, cell-based, Clone20-Shn3RL, cherry-picked (AID 624133); format: functional
INS1 = assay: beta cell apoptosis inhibitors, cytokine rescue, dose response, luminescence, retest (AID 449756); format: functional, cell-based; conditions: Rattus norvegicus;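 also: cell death triggered by IL-1 beta plus TNF-alpha plus IFN-gamma mixture; protective hits raise ATP signal compared with cytokine alone wells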
[15] = HepG2 cell cytotoxicity, dose response, cytotoxicity control for Shn3 inhibitor project, CellTiter-Glo, cherry-picked (AID 624134); format: functional, cell-based
[16] = target: T6, Rac GTPase-activating protein 1 (Homo sapiens, UniProt Q9H0H5); assay: MgcRacGAP GTPase-activating activity inhibitors, confirmation, biochemical, ADP Hunter fluorescence, primary and confirmatory (AID 624330); format: functional
T6 sequence (Q9H0H5 whole entry): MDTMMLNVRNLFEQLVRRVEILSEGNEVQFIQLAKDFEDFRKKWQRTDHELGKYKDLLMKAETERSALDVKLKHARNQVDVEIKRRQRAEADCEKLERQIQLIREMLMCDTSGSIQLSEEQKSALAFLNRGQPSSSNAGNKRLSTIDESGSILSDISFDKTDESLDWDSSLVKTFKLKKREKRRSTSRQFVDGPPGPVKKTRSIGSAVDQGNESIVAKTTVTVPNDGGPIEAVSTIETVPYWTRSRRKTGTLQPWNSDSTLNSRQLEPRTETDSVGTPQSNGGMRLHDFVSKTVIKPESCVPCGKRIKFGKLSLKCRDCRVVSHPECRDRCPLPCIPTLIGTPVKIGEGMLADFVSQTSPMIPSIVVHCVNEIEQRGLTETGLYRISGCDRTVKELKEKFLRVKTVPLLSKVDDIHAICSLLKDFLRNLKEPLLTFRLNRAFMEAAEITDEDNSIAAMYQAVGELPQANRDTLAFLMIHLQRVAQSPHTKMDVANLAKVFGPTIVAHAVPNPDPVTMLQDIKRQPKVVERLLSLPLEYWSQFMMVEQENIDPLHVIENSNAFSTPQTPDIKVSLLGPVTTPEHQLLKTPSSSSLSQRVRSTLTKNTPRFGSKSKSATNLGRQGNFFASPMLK

T3 sequence (P49327 whole entry, the tested form may be a part): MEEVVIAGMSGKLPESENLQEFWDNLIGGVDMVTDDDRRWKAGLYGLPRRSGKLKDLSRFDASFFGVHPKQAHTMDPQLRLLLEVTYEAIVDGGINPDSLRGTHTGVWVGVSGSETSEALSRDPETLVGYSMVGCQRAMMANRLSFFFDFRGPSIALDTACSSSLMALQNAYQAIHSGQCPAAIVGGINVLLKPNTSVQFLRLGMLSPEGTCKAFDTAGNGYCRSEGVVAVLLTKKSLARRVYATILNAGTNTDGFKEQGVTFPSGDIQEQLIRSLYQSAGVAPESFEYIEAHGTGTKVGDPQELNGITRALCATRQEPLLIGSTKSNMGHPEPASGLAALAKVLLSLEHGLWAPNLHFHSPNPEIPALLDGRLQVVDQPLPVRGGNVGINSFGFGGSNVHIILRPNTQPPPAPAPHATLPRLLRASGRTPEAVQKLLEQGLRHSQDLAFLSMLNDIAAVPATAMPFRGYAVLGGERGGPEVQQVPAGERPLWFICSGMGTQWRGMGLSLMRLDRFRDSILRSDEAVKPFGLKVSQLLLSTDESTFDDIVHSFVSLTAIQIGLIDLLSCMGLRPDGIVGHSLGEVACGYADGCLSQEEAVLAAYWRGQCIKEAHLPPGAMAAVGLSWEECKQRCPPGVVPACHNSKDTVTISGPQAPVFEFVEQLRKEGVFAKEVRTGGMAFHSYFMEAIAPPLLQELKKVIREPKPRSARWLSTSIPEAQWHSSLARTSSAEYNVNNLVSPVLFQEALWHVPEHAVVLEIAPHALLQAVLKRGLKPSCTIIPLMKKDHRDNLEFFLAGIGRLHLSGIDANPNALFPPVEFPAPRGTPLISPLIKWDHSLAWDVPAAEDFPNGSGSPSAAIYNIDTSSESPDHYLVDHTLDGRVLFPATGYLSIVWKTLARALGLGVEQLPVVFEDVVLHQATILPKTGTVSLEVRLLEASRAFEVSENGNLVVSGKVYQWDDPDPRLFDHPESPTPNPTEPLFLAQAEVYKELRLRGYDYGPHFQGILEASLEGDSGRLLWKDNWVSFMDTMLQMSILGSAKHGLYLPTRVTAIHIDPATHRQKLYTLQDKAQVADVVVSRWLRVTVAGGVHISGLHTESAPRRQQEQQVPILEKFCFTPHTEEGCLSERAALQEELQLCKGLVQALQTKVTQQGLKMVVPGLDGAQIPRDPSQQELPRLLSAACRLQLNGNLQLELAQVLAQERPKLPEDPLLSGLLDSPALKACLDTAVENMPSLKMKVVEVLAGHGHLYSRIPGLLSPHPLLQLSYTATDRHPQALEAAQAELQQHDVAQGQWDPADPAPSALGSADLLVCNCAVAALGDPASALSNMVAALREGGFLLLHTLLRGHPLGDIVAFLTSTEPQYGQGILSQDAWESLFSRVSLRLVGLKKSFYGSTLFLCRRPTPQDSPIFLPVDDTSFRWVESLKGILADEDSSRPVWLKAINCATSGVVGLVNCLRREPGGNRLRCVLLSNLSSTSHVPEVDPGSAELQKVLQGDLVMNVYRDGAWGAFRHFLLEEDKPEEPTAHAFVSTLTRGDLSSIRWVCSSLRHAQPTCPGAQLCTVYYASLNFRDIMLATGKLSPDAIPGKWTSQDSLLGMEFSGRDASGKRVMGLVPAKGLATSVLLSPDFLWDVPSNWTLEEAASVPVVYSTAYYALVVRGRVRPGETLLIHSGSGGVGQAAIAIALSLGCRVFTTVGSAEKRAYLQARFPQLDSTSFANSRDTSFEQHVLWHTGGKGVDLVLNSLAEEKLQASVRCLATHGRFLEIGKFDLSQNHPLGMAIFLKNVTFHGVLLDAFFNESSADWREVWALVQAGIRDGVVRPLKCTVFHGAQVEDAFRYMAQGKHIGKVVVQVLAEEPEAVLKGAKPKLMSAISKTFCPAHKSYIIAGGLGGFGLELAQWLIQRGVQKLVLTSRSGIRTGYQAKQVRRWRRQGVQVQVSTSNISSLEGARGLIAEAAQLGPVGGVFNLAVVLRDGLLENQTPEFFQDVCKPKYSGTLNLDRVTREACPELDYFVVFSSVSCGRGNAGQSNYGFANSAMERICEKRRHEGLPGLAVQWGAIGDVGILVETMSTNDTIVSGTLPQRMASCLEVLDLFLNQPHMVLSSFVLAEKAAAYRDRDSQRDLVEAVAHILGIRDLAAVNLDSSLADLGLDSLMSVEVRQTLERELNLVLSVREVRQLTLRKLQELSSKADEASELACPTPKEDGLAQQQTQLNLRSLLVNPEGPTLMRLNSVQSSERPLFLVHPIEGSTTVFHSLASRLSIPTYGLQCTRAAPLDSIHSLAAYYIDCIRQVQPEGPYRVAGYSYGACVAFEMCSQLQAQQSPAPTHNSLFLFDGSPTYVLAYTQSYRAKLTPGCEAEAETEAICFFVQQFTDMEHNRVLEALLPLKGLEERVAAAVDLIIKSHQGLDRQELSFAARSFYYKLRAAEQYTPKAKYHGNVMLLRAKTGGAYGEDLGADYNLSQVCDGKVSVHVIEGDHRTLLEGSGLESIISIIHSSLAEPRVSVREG
Chain of Cytochrome P450 2D6 (P10635 whole entry): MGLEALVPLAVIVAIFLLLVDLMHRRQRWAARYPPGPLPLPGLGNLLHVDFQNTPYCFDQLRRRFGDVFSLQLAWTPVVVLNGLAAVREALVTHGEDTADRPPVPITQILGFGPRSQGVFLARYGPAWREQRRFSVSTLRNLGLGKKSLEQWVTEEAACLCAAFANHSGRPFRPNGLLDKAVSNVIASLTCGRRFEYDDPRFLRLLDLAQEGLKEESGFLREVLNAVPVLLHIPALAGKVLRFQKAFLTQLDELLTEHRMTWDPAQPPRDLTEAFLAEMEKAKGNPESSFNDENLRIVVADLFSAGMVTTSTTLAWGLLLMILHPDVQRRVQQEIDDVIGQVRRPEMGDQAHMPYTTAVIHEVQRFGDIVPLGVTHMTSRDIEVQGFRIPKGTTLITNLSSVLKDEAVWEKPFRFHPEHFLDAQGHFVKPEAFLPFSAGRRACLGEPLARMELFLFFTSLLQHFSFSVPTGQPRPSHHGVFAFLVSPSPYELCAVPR
Chain of Cytochrome P450 3A4 (P08684 whole entry): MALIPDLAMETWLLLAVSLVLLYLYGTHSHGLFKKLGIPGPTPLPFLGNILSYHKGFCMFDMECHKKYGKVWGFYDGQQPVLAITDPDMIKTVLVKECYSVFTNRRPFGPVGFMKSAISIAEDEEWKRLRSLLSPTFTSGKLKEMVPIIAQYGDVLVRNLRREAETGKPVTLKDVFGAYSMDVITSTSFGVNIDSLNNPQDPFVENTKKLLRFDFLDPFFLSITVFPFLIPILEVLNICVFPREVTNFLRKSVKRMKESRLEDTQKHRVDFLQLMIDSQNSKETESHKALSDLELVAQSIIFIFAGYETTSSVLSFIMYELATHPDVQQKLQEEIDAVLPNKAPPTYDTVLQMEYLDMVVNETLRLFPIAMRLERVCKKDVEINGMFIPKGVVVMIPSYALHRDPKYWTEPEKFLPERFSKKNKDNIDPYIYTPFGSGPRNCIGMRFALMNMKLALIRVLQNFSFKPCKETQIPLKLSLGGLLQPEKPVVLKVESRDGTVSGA

Cc1ccc(C(=O)c2cc([N+](=O)[O-])ccc2N2CCCCC2)cc1C
EC50 (BJ [1]): 1.69 µM (active)
IC50 [2]: > 80 µM (inactive)
EC50 (BJ [3]): 35.6 µM (active)
EC50 (BJ [4]): 1.33 µM (active)
EC50 [5]: 0.966 µM (active)

CCOC(=O)C(C)Oc1cccc2c(=O)n(CC(=O)NCc3ccccc3)ccc12 (configuration not stated)
EC50 (BJ [1]): 0.772 µM (active)
IC50 [2]: > 80 µM (inactive)
EC50 (BJ [3]): 7.35 µM (active)
EC50 (BJ [4]): 0.785 µM (active)
EC50 [5]: 0.645 µM (active)

CC1Cc2ccccc2N1C(=S)NC(=O)c1ccc(Cl)cc1Cl (configuration not stated)
EC50 [6]: 5.96 µM (active)
EC50 (Streptococcus): 13.7 µM (active)
EC50 (Streptokinase A): > 150 µM (not active)
CC50 [7]: 33 µM (active)

COc1cc(O)c2c(c1)COC2=O
EC50 [8]: > 53 µM (inactive)
IC50 [9]: > 47.1 µM (inactive)

O=C(CC1N=C2c3ccccc3N=C(SCc3ccccc3Cl)N2C1=O)NCc1ccco1 (configuration not stated)
EC50 [8]: > 53 µM (inactive)
IC50 [9]: > 47.1 µM (inactive)

CC(C)c1ccc(/C=N/NC(=O)CN(c2cccc(Cl)c2Cl)S(C)(=O)=O)cc1
IC50 (Fatty acid synthase [10]): 7.36 µM (active)
AC50 (Cytochrome P450 2D6): 28.2 µM (inconclusive)
AC50 (Cytochrome P450 3A4): 28.2 µM (inconclusive)
AC50 (Cytochrome P450 1A2): 25.1 µM (inconclusive)
IC50 (Fatty acid synthase [11]): 10.4 µM (active)

CCc1ccc(NC(=O)CSc2nc3nnc(C)c-3c(N)n2-c2cccc(OC)c2)cc1
CC50 [7]: 22.6 µM (active)
EC50 [12]: 118 µM (active)

COc1ccc(NC(=O)CCN2CCCCCC2)cc1
EC50 [8]: > 53 µM (inactive)
IC50 [9]: > 47.1 µM (inactive)

O=C1NCC(O)=C1/C=N/c1ccccc1O
IC50 (cells): 4.46 µM (active)
CC50 [7]: > 40 µM (active)

CC(C)(C)c1cc(Br)c(O)c(N=Nc2ccc(S(=O)(=O)N3CCOCC3)cc2)c1
IC50 (Fatty acid synthase [10]): 2.66 µM (active)
IC50 (Fatty acid synthase [11]): 3.8 µM (active)

CCCCC1(Cc2ccc([N+](=O)[O-])cc2)C(=O)N(c2ccccc2)N(c2ccccc2)C1=O
AC50 [13]: 10.2 µM (active)
AC50 [14]: 3.42 µM (active)
AC50 (INS1): 3.67 µM (active)
AC50 [15]: 66.8 µM (active)

CC(=O)N1CCCc2cc(S(=O)(=O)N3CCCC(C(=O)N4CCN(c5cccc(Cl)c5)CC4)C3)ccc21 (configuration not stated)
AC50 [13]: 1.9 µM (active)
AC50 [14]: 1.13 µM (active)
AC50 (INS1): 2.88 µM (active)
AC50 [15]: 3.29 µM (active)

Cc1ccc2c(c1)C(C)CC(C)(C)N2C(=O)CN1CCN(C)CC1 (configuration not stated)
EC50 [8]: > 53 µM (inactive)
IC50 [9]: > 47.1 µM (inactive)
IC50 [16]: 73.3 µM (active)

CCCCCN(CCCCC)C(=O)C(CCC(=O)O)NC(=O)c1ccc(Cl)c(Cl)c1 (configuration not stated) [LORGLUMIDE SODIUM]
IC50 (Fatty acid synthase [10]): 5.31 µM (active)
IC50 (Fatty acid synthase [11]): 5.09 µM (active)

O=C(COC(=O)CCc1c[nH]c2ccccc12)NCc1ccc(Cl)cc1
IC50 (cells): 11.8 µM (active)

COc1ccc(C(=O)OCC(=O)NCCCc2ccccc2)cc1[N+](=O)[O-]
IC50 (Fatty acid synthase [10]): 4.84 µM (active)
IC50 (Fatty acid synthase [11]): 4.1 µM (active)

O=C(COc1ccc(Br)cc1)Nc1ccc([N+](=O)[O-])cn1
IC50 (cells): 26.3 µM (active)

CCN(CC)S(=O)(=O)c1ccc(NC(=O)c2ccc(CN3CCOCC3)cc2)cc1
IC50 [2]: > 80 µM (inactive)

COc1ccc(C(=O)N/C(=C\c2cn(S(=O)(=O)N(C)C)c3ccccc23)C(=O)N2CCCC2)cc1
IC50 (Fatty acid synthase [10]): 4.3 µM (active)
IC50 (Fatty acid synthase [11]): 1.47 µM (active)

CC(=O)N(Cc1ccco1)c1nc(C(=O)Nc2ccc(Cl)cc2)c(C)s1
EC50 [8]: > 53 µM (inactive)
IC50 [9]: > 47.1 µM (inactive)

COC(=O)c1ccc(Oc2cc(C)nc(SC)n2)cc1
IC50 [2]: > 80 µM (inactive)

C=CCOC(=O)COc1ccc2c(C)c(CC)c(=O)oc2c1
IC50 (Fatty acid synthase [10]): 3.08 µM (active)
IC50 (Fatty acid synthase [11]): 5.57 µM (active)

CCCN(C(=O)CCOc1ccc(C(C)(C)C)cc1)c1c(N)n(Cc2ccccc2)c(=O)[nH]c1=O
CC50 [7]: > 40 µM (active)
